Our source for the IC50 and melting point values is patent publication US8632914B2, “Triazolium and imidazolium salts and uses thereof” (University Health Network, priority 2008, dated 2014).

In one series the test system is P. falciparum. Nature of the series: Anti-Plasmodium activity: viability of P. falciparum cultures (pLDH enzyme assay). Format: cell-based. Conditions: read-out: IC50 (μM) P. falciparum. The procedure:
P. falciparum cultures were grown in O+ blood obtained by venipuncture of volunteers. Cultures of the laboratory line ItG were maintained by the method of Trager and Jensen (Trager, W.; Jensen, J. Science 1976, 193, 673) using RPM, 1640 supplemented with 10% human serum (a kind gift obtained under ethical consent from the Chemo Day Care department of the Princess Margaret Hospital, Toronto, Canada) and 50 μM hypoxanthine (RPMI-A). The effects of the test compounds on the viability of P. falciparum cultures were determined using a Lactate Dehydrogenase (LDH) enzyme assay specific to the enzyme found in Plasmodium falciparum (pLDH) (Prudhomme, J. G.; Sherman, I. W. J Immunol Methods 1999, 229(1-2), 169; Makler, M. T.; Ries, J. M.; Williams, J. A.; Bancroft, J. E.; Piper, R. C.; Gibbins, B. L.; Hinrichs, D. J. Am J Trop Med Hyg 1993, 48(6), 739). Briefly, compounds to be tested were dissolved in DMSO afford a solution having a concentration of 10 mg/mL. Two-fold serial dilutions were then produced in 50 μL of RPMI-A in a 96 well plate and then 50 μL of parasite culture (2% hematocrit, 2% parasitemia) were added to each well and the plates were then incubated at 37° C. in 95% N2, 3% CO2, and 2% O2 for 72 hr. The contents of the wells were then re-suspended using a multi-channel pipettor and a 15 μL sample was removed from each well and was added to 100 μL of pLDH enzyme assay mixture (Prudhomme, J. G.; Sherman, I. W. J Immunol Methods 1999, 229(1-2), 169). After 1 hr the absorbance of the wells at 650 nm was determined using a ThermoMax microplate reader (Molecular Devices, Sunnyvale, Calif.). The IC50 values of individual compounds were determined using a non-linear regression analysis of the data^19 using the computer program SigmaPlot (Jandel Scientific) and are reported in Table 1. The IC50 values represent the mean±standard error calculated from four independent determinations. To verify if the poor viability of the cultures was related to inhibited merozoite invasion, samples were taken from treated wells and the presence of extracellular merozoites was confirmed by microscopy.

A further series has as its system CHO cells. Nature of the series: Viability of CHO cells (MTT). Format: cell-based. Conditions: Cricetulus griseus, read-out: IC50 (μM) CHO cells. Here is the method:
CHO cells (ATCC, Manassas, Va.) were grown in RPMI-1640 supplemented with 10% fetal calf serum (Sigma, St. Louis, Mo.), 25 mM HEPES and gentimicin (RPMI-10). Cells were seeded in 96 well plates and grown to 50% confluency in 100 μL of RPMI-10 per well prior to the addition of either DMSO alone, or a 10 mg/mL solution of a test compound of the disclosure in DMSO. Compound gradients were prepared by adding 90 μL of RPMI-10 mixed with 10 μL of compound solution to the first well in the series, mixing, transferring 100 μL to the next well, and repeating until the next-to-last well was reached. After 48 hrs, the viability of the cells was determined by discarding the media in the wells and adding 100 μL of 10 mg/mL of 3-[4,5-dimethylthiazol-2-yl]-2,5-diphenyltetrazolium bromide (MTT, Sigma, St. Louis, Mo.) in RPMI-10, incubating the plates for a further hour, and then removing the media and adding 100 μL of DMSO and reading the absorbance at 650 nm (Campling, B. G.; Pym, J.; Galbraith, P. R.; Cole, S. P. Leuk Res 1988, 12(10), 823). The IC50 values of individual compounds were determined using a non-linear regression analysis of the dose-response curve using the computer program SigmaPlot (Jandel Scientific) and are reported in Table 1.

The mark [1] stands for this setting: strain line ItG, 72 hr incubation, pLDH assay, mean of four determinations ± standard error.
Setting [2] is: CHO cells, 48 hrs, MTT, mean of four determinations ± standard error.

Like-named read-outs stand apart in the source and are kept apart here.

One may read the IC50 as the concentration that inhibits the measured activity by half. For `c1ccc2cc(Cn3cc[n+](Cc4ccc5ccccc5c4)c3)ccc2c1` [QT81, 1,3-Bis-(naphthalen-2-yl-methyl)imidazolium bromide], the IC50 in the series with P. falciparum (setting [1]) is 0.9 ± 0.4 µM; in the series on CHO cells (setting [2]), 27 ± 1 µM. The corresponding values for `Fc1ccc(Cn2cc[n+](Cc3ccc(F)cc3)c2)cc1` [QT92, 1,3-Bis-(4-fluorobenzyl)imidazolium bromide] are 17 ± 3 µM and 56 ± 4 µM.

`Clc1ccccc1Cn1cc[n+](Cc2ccccc2Cl)c1` [QT90, 1,3-Bis-(2-chlorobenzyl)imidazolium bromide]: the results for the IC50 in the series on P. falciparum (setting [1]) and with CHO cells (setting [2]) were 2 ± 0.2 µM and 110 ± 23 µM, respectively. Regarding `C[n+]1ccn(CCCCCCCCCCCCCCn2cc[n+](C)c2)c1` [QT107, 1,14-Bis-(3-methylimidazolium-1-yl)tetradecane diiodide], the IC50 stood at 0.0032 ± 0.0002 µM with P. falciparum (setting [1]) and 11 ± 2 µM in the series on CHO cells (setting [2]).

Broadly, the melting point is the temperature, or range, at which the solid turns liquid. On to `Cl.Cl.c1cn(CCCCCCCCn2ccnc2)cn1`, for which the melting point fell in the range of 176 to 177 °C. Regarding `O=C(Cn1cc[n+](CC(=O)c2ccc(Cl)cc2)c1)c1ccc(Cl)cc1` [QT91, 1,3-Bis-[2-oxo-2-(4-chlorophenyl)ethyl]imidazolium bromide], the IC50 was determined as 2.6 ± 0.1 µM in the series with P. falciparum (setting [1]) and 53 ± 2 µM in the series with CHO cells (setting [2]). For `C[n+]1ccn(Cc2ccc(-c3ccc(Cn4cc[n+](C)c4)cc3)cc2)c1` [QT113, 4,4′-Bis-(3-methylimidazolium-1-yl-methyl)biphenyl diiodide], the figures for the IC50 with P. falciparum (setting [1]) and in the series on CHO cells (setting [2]) were 0.12 ± 0.04 µM and 125 ± 13 µM, respectively.

With `C[n+]1ccn(CCCCCCCCn2cc[n+](C)c2)c1` [QT71, 1,8-Bis-(3-methylimidazolium-1-yl)octane diiodide], the IC50 in the series with P. falciparum (setting [1]) worked out at 4.7 ± 0.9 µM; in the series on CHO cells (setting [2]) it was 452 ± 49 µM.

With `C[n+]1ccn(CCCOc2ccc(OCCCn3cc[n+](C)c3)cc2)c1` [QT123, 1,4-Bis[3-(3-methylimidazolium-1-yl)propoxy]benzene diiodide], the IC50 in the series with P. falciparum (setting [1]) turned out to be 0.045 ± 0.004 µM; in the series with CHO cells (setting [2]), 113 ± 12 µM. The corresponding values for `C[n+]1ccn(CCCCCCCCCCn2cc[n+](C)c2)c1` [QT88, 1,10-Bis-(3-methylimidazolium-1-yl)decane diiodide] are 0.082 ± 0.009 µM and 57 ± 5 µM. `O=[N+]([O-])c1ccc(Cn2cc[n+](Cc3ccc([N+](=O)[O-])cc3)c2)cc1` [QT85, 1,3-Bis-(4-nitrobenzyl)imidazolium bromide]: the IC50 worked out at 9 ± 2 µM in the series with P. falciparum (setting [1]) and 227 ± 7 µM in the series with CHO cells (setting [2]). The corresponding values for `Ic1ccc(Cn2cc[n+](Cc3ccc(I)cc3)c2)cc1` [QT78, 1,3-Bis-(4-iodobenzyl)imidazolium bromide] are 0.35 ± 0.06 µM and 33 ± 1 µM. `Cl.Cl.c1cn(CCCCCCCCCCn2ccnc2)cn1`: the melting point lay in the range of 143 to 144 °C. Consider `C[n+]1ccn(CCCCCCCCCCCCCCCn2cc[n+](C)c2)c1` [QT101, 1,15-Bis-(3-methylimidazolium-1-yl)pentadecane diiodide], for which the results for the IC50 with P. falciparum (setting [1]) and in the series with CHO cells (setting [2]) were 0.002 ± 0.001 µM and 1.2 ± 0.2 µM, respectively. The corresponding values for `O=C(Cn1cc[n+](CC(=O)c2ccc(Cc3ccccc3)cc2)c1)c1ccc(Cc2ccccc2)cc1` [QT97, 1,3-Bis-[2-oxo-2-(4-benzylphenyl)ethyl]imidazolium bromide] are 0.5 ± 0.1 µM and 4.3 ± 0.3 µM. The corresponding values for `Brc1ccc(Cn2cc[n+](Cc3ccc4ccccc4c3)c2)cc1` [QT95, 1-(4-Bromobenzyl)-3-(naphthalen-2-ylmethyl)imidazolium bromide] are 0.73 ± 0.03 µM and 27 ± 5 µM.

With `Clc1cccc(Cn2cc[n+](Cc3cccc(Cl)c3)c2)c1` [QT74, 1,3-Bis-(3-chlorobenzyl)imidazolium bromide], the IC50 in the series on P. falciparum (setting [1]) stood at 3.3 ± 0.4 µM; in the series on CHO cells (setting [2]) it was 334.2 ± 0.4 µM. Turning to `C[n+]1ccn(CCCCn2cc[n+](C)c2)c1` [QT86, 1,4-Bis-(3-methylimidazolium-1-yl)butane diiodide], the IC50 came to 67 ± 22 µM with P. falciparum (setting [1]) and 122 ± 3 µM in the series on CHO cells (setting [2]).

As to `Clc1ccc(Cn2cc[n+](Cc3ccc(Cl)cc3)c2)cc1` [QT80, 1,3-Bis-(4-chlorobenzyl)imidazolium chloride], the IC50 in the series with P. falciparum (72 h) came to 9 ± 2 µM; with CHO cells (CHO, 48 h), 105 ± 1 µM. Take `Cn1c[n+](C)c(-c2ccccc2)c1-c1ccccc1` [QT104, 1,3-Dimethyl-4,5-diphenyl-1H-imidazolium iodide]: the values for the IC50 in the series on P. falciparum (setting [1]) and with CHO cells (setting [2]) were 3.1 ± 0.4 µM and 385 ± 42 µM, respectively.

Take `Cn1cc[n+](C)c1` [QT70, 1,3-Dimethylimidazolium iodide]: the IC50 in the series with P. falciparum (setting [1]) was found to be 543 ± 66 µM; in the series with CHO cells (setting [2]), 894 ± 19 µM. The corresponding values for `C[n+]1ccn(CCCCCCCCCCCCn2cc[n+](C)c2)c1` [QT89, 1,12-Bis-(3-methylimidazolium-1-yl)dodecane diiodide] are 0.009 ± 0.001 µM and 26 ± 5 µM.

Regarding `C[n+]1ccn(CCCCCCCCCCCn2cc[n+](C)c2)c1` [QT118, 1,11-Bis-(3-methylimidazolium-1-yl)undecane diiodide], the half-maximal inhibitory concentration (IC50) came to 0.0061 ± 0.0006 µM with P. falciparum (setting [1]) and 42 ± 3 µM in the series on CHO cells (setting [2]). The compound `Cl.Cl.c1cn(CCCCCCn2ccnc2)cn1` registered a melting point of 220 to 221 °C. With `O=[N+]([O-])c1ccc(C[n+]2ccn(-c3ccc(-c4ccc(-n5cc[n+](Cc6ccc([N+](=O)[O-])cc6)c5)cc4)cc3)c2)cc1` [QT103, 4,4′-Bis-[3-(4-nitrobenzyl)-1H-imidazolium-1-yl]biphenyl dibromide], the IC50 in the series with P. falciparum (setting [1]) was found to be 0.026 ± 0.003 µM; in the series with CHO cells (setting [2]) it was 14 ± 2 µM. The corresponding values for `C[n+]1ccn(-c2ccc(-n3cc[n+](C)c3)cc2)c1` [QT114, 1,4-Bis-(3-methylimidazolium-1-yl)benzene diiodide] are 11.2 ± 0.5 µM and 317 ± 64 µM.

With `Brc1ccc(C[n+]2ccn(Cc3ccccc3)c2)cc1` [QT75, 1-Benzyl-3-(4-bromobenzyl)imidazolium bromide], the IC50 in the series on P. falciparum (setting [1]) is 2.9 ± 0.9 µM; in the series with CHO cells (setting [2]) it was 484.5 ± 0.9 µM. `Cl.Cl.c1cn(CCCCCCCCCCCCCCn2ccnc2)cn1` gave a melting point of 142 to 143 °C. For `CCCn1cc[n+](C)c1` [QT73, 3-Methyl-1-propylimidazolium bromide], the figures for the IC50 with P. falciparum (setting [1]) and in the series on CHO cells (setting [2]) were 230 ± 83 µM and 998 ± 83 µM, respectively.

As for `c1ccc(Cn2cc[n+](Cc3ccccc3)c2)cc1` [QT68, 1,3-Dibenzylimidazolium bromide], the IC50 with P. falciparum (setting [1]) is 16 ± 1 µM; in the series with CHO cells (setting [2]), 191 ± 3 µM.

For the compound `C[n+]1cn(-c2ccc(-c3ccc(-n4c[n+](C)c5ccccc54)cc3)cc2)c2ccccc21` [QT110, 4,4′-Bis-(3-methylbenzimidazolium-1-yl)biphenyl diiodide], the IC50 was found to be 0.07 ± 0.01 µM in the series with P. falciparum (setting [1]) and 98 ± 24 µM in the series on CHO cells (setting [2]).

Regarding `COc1ccc(Cn2cc[n+](Cc3ccc(OC)cc3)c2)cc1` [QT79, 1,3-Bis-(4-methoxybenzyl)imidazolium chloride], the IC50 stood at 5 ± 1 µM in the series with P. falciparum (72 h) and 30.6 ± 0.7 µM in the series with CHO cells (CHO, 48 h). As for `Brc1ccccc1Cn1cc[n+](Cc2ccccc2Br)c1` [QT82, 1,3-Bis-(2-bromobenzyl)imidazolium bromide], the figures for the IC50 in the series with P. falciparum (setting [1]) and in the series with CHO cells (setting [2]) were 1.4 ± 0.6 µM and 125 ± 10 µM, respectively.

`Brc1cccc(Cn2cc[n+](Cc3cccc(Br)c3)c2)c1` [QT83, 1,3-Bis-(3-bromobenzyl)imidazolium bromide]: the figures for the IC50 in the series with P. falciparum (setting [1]) and with CHO cells (setting [2]) were 1.05 ± 0.06 µM and 132 ± 22 µM, respectively. The corresponding values for `c1ccc(Cn2c[n+](Cc3ccccc3)c(-c3ccccc3)c2-c2ccccc2)cc1` [QT105, 1,3-dibenzyl-4,5-diphenyl-1H-imidazolium bromide] are 1.4 ± 0.1 µM and 21 ± 2 µM.
